Test results taken from paper PMC9743095 (Journal of Medicinal Chemistry, 2022).
Read-outs that look alike come from different tables or passages of the source.

How the values were obtained:
Format in all cases: cell-based
[1] = test system: BxPC-3; assay: cells; settings: for MI%: BxPC-3, maximum inhibitory effect over concentration range; for CC50: Homo sapiens, BXPC-3, 72 h, read-out: LC50
Protocol: (§1) The assay was contracted and carried out by WuXi AppTec (Shanghai) Co., Ltd. The tumor cell lines CCRF-CEM, HL-60, KG-1, MOLT-4, K562, MV4-11, THP-1, HEL92.1.7, NCI-H929, RPMI-8226, Jurkat, Z138, RL, HS445, HepG2, MCF-7, Bx-PC-3, HT29, MIA PaCa-2, and SW620 were seeded at cell densities of […] 10^3 cells/well in a 96-well plate the day before drug incubation. Then, the plates were incubated for 72 h with the different concentrations of compound to be tested. After the incubation period, 50 μL of MTS was added and the tumor cells were incubated for 4 h at 37 °C. The data were read and collected by a Spectra Max 340 absorbance microplate reader. The compounds were tested in duplicate with nine serial concentrations (3.16-fold titrations with 198 μM as the highest concentration), and the data were analyzed by XLfit software.

[2] = test system: HEL92.1.7; assay: cells; settings: for MI%: HEL92.1.7, maximum inhibitory effect over concentration range; for CC50: Homo sapiens, HEL 92.1.7, 72 h, read-out: LC50
Protocol: as §1

[3] = test system: HS445; assay: cells; settings: for MI%: HS445, maximum inhibitory effect over concentration range; for CC50: Homo sapiens, Hs 445, 72 h, read-out: LC50
Protocol: as §1

[4] = test system: HepG2; assay: cells; settings: Homo sapiens; for Emax: read-out: MI%; for CC50: read-out: LC50
Protocol: as §1

[5] = test system: Jurkat; assay: cells; settings: for CC50: Homo sapiens, 72 h, read-out: LC50; for CC50 / MI%: Jurkat; for MI%: maximum inhibitory effect over concentration range
Protocol: as §1

[6] = test system: K562; assay: cells; settings: Homo sapiens; for Emax: read-out: MI%; for CC50: read-out: LC50
Protocol: as §1

[7] = test system: KG-1; assay: cells; settings: Homo sapiens, KG-1, 72 h, read-out: LC50
Protocol: as §1

[8] = test system: MCF-7; assay: cells; settings: Homo sapiens, MCF7, 72 h; for CC50: read-out: LC50; for Emax: read-out: MI%
Protocol: as §1

[9] = test system: MIA PaCa-2; assay: cells; settings: for CC50: Homo sapiens, MIA PaCa-2, 72 h, read-out: LC50; for MI%: MIA PaCa-2, maximum inhibitory effect over concentration range
Protocol: as §1

[10] = test system: MOLT-4; assay: cells; settings: Homo sapiens; for Emax: read-out: MI%; for CC50: read-out: LC50
Protocol: as §1

[11] = test system: MV4-11; assay: cells; settings: for CC50: Homo sapiens, MV4-11, 72 h, read-out: LC50; for MI%: MV4-11, maximum inhibitory effect over concentration range
Protocol: as §1

[12] = test system: NCI-H929; assay: cells; settings: for CC50: Homo sapiens, NCI-H929, 72 h, read-out: LC50; for MI%: NCI-H929, maximum inhibitory effect over concentration range
Protocol: as §1

[13] = test system: RL; assay: cells; settings: for CC50: Homo sapiens, 72 h, read-out: LC50; for MI%: maximum inhibitory effect over concentration range
Protocol: as §1

[14] = test system: RPMI-8226; assay: cells; settings: for CC50: Homo sapiens, RPMI-8226, 72 h, read-out: LC50; for MI%: RPMI-8226, maximum inhibitory effect over concentration range
Protocol: as §1

[15] = test system: SW620; assay: cells; settings: for CC50: Homo sapiens, SW-620, 72 h, read-out: LC50; for MI%: SW620, maximum inhibitory effect over concentration range
Protocol: as §1

[16] = test system: THP-1; assay: cells; settings: for CC50: Homo sapiens, THP-1, 72 h, read-out: LC50; for MI%: THP-1, maximum inhibitory effect over concentration range
Protocol: as §1

[17] = test system: CEM cell line; assay: ATP viability assay; settings: for CC50: Homo sapiens, CCRF-CEM, read-out: LC50
Protocol: (§2) HL-60 (ATCC CCL-240), K562 (ATCC CCL-243), CCRF-CEM (ATCC CRM-CCL-119), and RL (ATCC CRL-2261) leukemia cell lines were obtained from the American Type Culture Collection (ATCC), Middlesex. HL-60 and K562 cell lines are deoxynucleotidyl transferase-negative (TdT^–ve), whereas CCRF-CEM cell line is TdT^+ve. They were cultured in RPMI-1640 medium (Sigma-Aldrich, U.K.), which were supplemented with 10% fetal bovine serum (FBS) (PAA Laboratories), 1% amphotericin B (5.5 mL), and 1% penicillin/streptomycin (5.5 mL) (PAA Laboratories) and grown in flasks at 37 °C in an incubator with 5% CO2. For the studies with inhibitors, the cells were treated with 10 μM nitrobenzylthioinosine (NBTI, hENT inhibitor) or 1 μM EHNA (EHNA hydrochloride) or A-134974 (A-134974 dihydrochloride hydrate) and left for 5 min before adding the drug. The cells were then incubated for 2 h at 37 °C with 5% CO2.
(§3) The amount of ATP was used as a measurement of cell number and cell viability. ATP ViaLightTM plus assay kit (Lonza: Product No. LT07-121) to detect ATP in cells treated in luminescence compatible 96-well plates (initial concentration of cells was 1 × 10^4 cells/well) with Cordycepin and ProTides at concentrations of 0, 0.1, 0.5, 1, 5, and 10 μM, followed by incubation for 72 h at 37 °C in an incubator with 5% CO2. For inhibitor studies, 10 μM NBTI or 1 μM EHNA or A-134974 was added and left for 5 min before adding the drugs. After incubation, 50 μL of cell lysis reagent was added to the 96-well plates to release the intracellular ATP, followed by 100 μL of ATP monitoring reagent (AMR). The luminescent values of each well were determined using FLUOstar OPTIMA microplate reader (BMG Labtech), which converted ATP into light using luciferase enzyme. Therefore, the amount of luminescence produced was directly proportional to the amount of ATP.

[18] = test system: CRL cell line; assay: ATP viability assay; settings: for CC50: Homo sapiens, read-out: LC50
Protocol: as §2, §3

[19] = test system: HL-60 cell line; assay: ATP viability assay; settings: Homo sapiens
Protocol: as §2, §3

[20] = test system: K562 cell line; assay: ATP viability assay; settings: Homo sapiens
Protocol: as §2, §3

Row | SMILES | MI% [1] [%] | CC50 [1] [µM] | MI% [2] [%] | CC50 [2] [µM] | MI% [3] [%] | CC50 [3] [µM] | CC50 ([4]; HepG2, 72 h) [µM] | CC50 [5] [µM] | MI% [5] [%] | CC50 ([6]; K562, 72 h) [µM] | CC50 [7] [µM] | CC50 [8] [µM] | CC50 [9] [µM] | MI% [9] [%] | CC50 ([10]; MOLT-4, 72 h) [µM] | CC50 [11] [µM] | MI% [11] [%] | CC50 [12] [µM] | MI% [12] [%] | CC50 [13] [µM] | also measured
1 | Nc1ncnc2c1ncn2[C@@H]1O[C@H](CO)C[C@H]1O [3′-dA, 3′-Deoxyadenosine, reference compound] | 22 | > 198 | 88 | 68.9 | 2 | > 198 | 142 | > 198 | 20 | 59.3 | 70.8 | 34.2 | > 198 | 35 | 152 | > 198 | 1 | > 198 | 24 | > 198 | Emax ([4]; 72 h, HepG2, maximum inhibitory effect over concentration range): 66%; Emax ([6]; 72 h, K562, maximum inhibitory effect over concentration range): 88%; Emax ([8]; MCF-7, maximum inhibitory effect over concentration range): 78%; Emax ([10]; 72 h, MOLT-4, maximum inhibitory effect over concentration range): 52%; MI% [13]: 17%; CC50 [14]: > 198 µM; MI% [14]: 1%; CC50 [15]: > 198 µM; MI% [15]: 10%; CC50 [16]: > 198 µM; MI% [16]: –3%; improvement of LC50 on inhibition of ADA with EHNA ([17]; CEM): 16 fold; CC50 ([17]; 72 h): 19.5 µM; CC50 [17]: 11.5 µM; improvement of LC50 on inhibition of ADA with EHNA ([18]; CRL): 2 fold; CC50 ([18]; 72 h): 24.5 µM; CC50 [18]: 7.3 µM; CC50 ([19]; HL-60, 72 h, read-out: LC50): 11.4 µM; CC50 ([20]; K562, 72 h, read-out: LC50): 10.9 µM
2 | C[C@H](NP(=O)(OC[C@@H]1C[C@@H](O)[C@H](n2cnc3c(N)ncnc32)O1)Oc1ccccc1)C(=O)OCc1ccccc1 (stereo partly drawn) [Compound 7a, (Rp)- and (Sp)-3′-Deoxyadenosine 5′-O-phenyl-(benzoxy-L-alaninyl)-phosphate] | 81 | 23.6 | 100 | 8.07 | 98 | 30.5 | 18.7 | 1.44 | 100 | 6.1 | 17.4 | 3.07 | 6.85 | 96 | 0.51 | 2.1 | 99 | 6.07 | 100 | 3 | Emax ([4]; HepG2, 72 h): 76%; fold more active than 3′-dA ([5]; Jurkat cell line, from LC50): approximately 200 fold; Emax ([6]; K562, 72 h): 92%; Emax [8]: 94%; Emax ([10]; MOLT-4, 72 h): 98%; MI% [13]: 93%; CC50 [14]: 14.7 µM; MI% [14]: 96%; CC50 [15]: 24.9 µM; MI% [15]: 85%; CC50 [16]: 65.5 µM; MI% [16]: 74%; LC50 change on ADA inhibition by EHNA ([17]; CEM): did not lead to any LC50 changes; CC50 ([17]; 72 h): 0.87 µM; CC50 [17]: 1.4 µM; CC50 ([18]; 72 h): 2.1 µM; CC50 [18]: 3.6 µM; CC50 ([19]; HL-60, 72 h, read-out: LC50): 4.6 µM; CC50 ([20]; K562, 72 h, read-out: LC50): 2.4 µM
3 | CCOC(=O)CCc1ccccc1OP(=O)(N[C@@H](C)C(=O)OCc1ccccc1)OC[C@@H]1C[C@@H](O)[C@H](n2cnc3c(N)ncnc32)O1 (some centres unmarked) [Compound 7e] | 78 | 60.9 | 99 | 14.5 | 92 | 42.7 | 96.1 | 4.75 | 100 | 175 | 102 | 15.8 | 12.1 | 101 | 12.6 | 3.27 | 100 | 7.57 | 100 | 7.26 | Emax ([4]; HepG2, 72 h): 59%; Emax ([6]; K562, 72 h): 61%; Emax [8]: 78%; Emax ([10]; MOLT-4, 72 h): 97%; MI% [13]: 90%; CC50 [14]: 31.1 µM; MI% [14]: 106%; CC50 [15]: 43.4 µM; MI% [15]: 90%; CC50 [16]: 36.7 µM; MI% [16]: 100%; CC50 ([17]; 72 h): 4.3 µM; CC50 ([18]; 72 h): 3.4 µM; CC50 ([19]; HL-60, Table S2, no inhibitors, 72 h, read-out: LC50 (the source's name)): 8.3 µM; CC50 ([20]; K562, Table S2, no inhibitors, 72 h, read-out: LC50 (the source's name)): 6.3 µM
